Assay results taken from ChEMBL document CHEMBL3045936, “Synthesis of new piperidyl indanone derivatives as anticonvulsant agents” (Med Chem Res, 2012).
Calls of active or inactive are those of the source. No cut-off for these calls is given here.

What was measured:
Mus musculus [1] = test: Neurotoxicity in ip dosed Mus musculus Swiss albino (mouse) assessed as minimal motor impairment after 0.5 hr by rotorod test; type: toxicity, organism-based; settings: in vivo
Rattus norvegicus [2] = test: Anticonvulsant activity in Rattus norvegicus Wistar (rat) assessed as increase in GABA level in medulla oblongata region measured per 100 mg of tissue at 100 mg/kg, ip after 2 hr (reference value: 40.57 +/- 0.2 ug); type: functional; settings: route intraperitoneal
Mus musculus [3] = test: Anticonvulsant activity in ip dosed Mus musculus Swiss albino (mouse) assessed as protection against maximal electroshock-induced seizures after 4 hr; type: functional; settings: read-out: MED
Mus musculus [4] = test: Anticonvulsant activity in ip dosed Mus musculus Swiss albino (mouse) assessed as protection against subcutaneous pentylenetetrazole-induced seizures after 0.5 hr; type: functional; settings: read-out: MED
Rattus norvegicus [5] = test: Anticonvulsant activity in Rattus norvegicus Wistar (rat) assessed as increase in GABA level in olfactory lob region measured per 100 mg of tissue at 100 mg/kg, ip after 2 hr (reference value: 13.22 +/- 0.03 ug); type: functional; settings: route intraperitoneal
Rattus norvegicus [6] = test: Anticonvulsant activity in Rattus norvegicus Wistar (rat) assessed as increase in GABA level in mid brain region measured per 100 mg of tissue at 100 mg/kg, ip after 2 hr (reference value: 44.38 +/- 0.219 ug); type: functional; settings: route intraperitoneal
Mus musculus [7] = test: Anticonvulsant activity in Mus musculus Swiss albino (mouse) assessed as protection against subcutaneous pentylenetetrazole-induced seizures at 300 mg/kg, ip after 4 hr; type: functional, organism-based; design: dose 300 mg/kg
Mus musculus [8] = test: Neurotoxicity in Mus musculus Swiss albino (mouse) assessed as potentiation of ethanol-mediated effect at 100 to 300 mg/kg, ip administered 1 hr followed by ethanol challenge; type: toxicity, organism-based; design: dose 100-300 mg/kg, route intraperitoneal; settings: in vivo
Rattus norvegicus [9] = test: Anticonvulsant activity in Rattus norvegicus Wistar (rat) assessed as increase in GABA level in cerebellum region measured per 100 mg of tissue at 100 mg/kg, ip after 2 hr (reference value: 25.27 +/- 0.57 ug); type: functional; settings: route intraperitoneal
Mus musculus [10] = test: Neurotoxicity in Mus musculus Swiss albino (mouse) assessed as minimal motor impairment at 300 mg/kg, ip after 4 hr by rotorod test; type: toxicity, organism-based; design: dose 300 mg/kg, route intraperitoneal; settings: in vivo
Mus musculus [11] = test: Anticonvulsant activity in ip dosed Mus musculus Swiss albino (mouse) assessed as protection against maximal electroshock-induced seizures after 0.5 hr; type: functional; settings: read-out: MED
[12] = Lipophilicity, log P of the compound; type: physicochemical; settings: octanol/water
Mus musculus [13] = test: Anticonvulsant activity in Mus musculus Swiss albino (mouse) assessed as protection against subcutaneous pentylenetetrazole-induced seizures at 300 mg/kg, ip after 0.5 hr; type: functional, organism-based; design: dose 300 mg/kg
Mus musculus [14] = test: Anticonvulsant activity in ip dosed Mus musculus Swiss albino (mouse) assessed as protection against subcutaneous pentylenetetrazole-induced seizures after 4 hr; type: functional; settings: read-out: MED
Mus musculus [15] = test: Anticonvulsant activity in Mus musculus Swiss albino (mouse) assessed as protection against maximal electroshock-induced seizures at 300 mg/kg, ip after 4 hr; type: functional, organism-based; design: dose 300 mg/kg
Mus musculus [16] = test: Neurotoxicity in ip dosed Mus musculus Swiss albino (mouse) assessed as minimal motor impairment after 4 hr by rotorod test; type: toxicity, organism-based; settings: in vivo
Mus musculus [17] = test: Neurotoxicity in Mus musculus Swiss albino (mouse) assessed as minimal motor impairment at 300 mg/kg, ip after 0.5 hr by rotorod test; type: toxicity, organism-based; design: dose 300 mg/kg, route intraperitoneal; settings: in vivo

Row | Compound | MTC (Mus musculus [1]) [mg/kg] | Activity (Rattus norvegicus [2]) [µg] | minimal effective dose (Mus musculus [3]) [mg/kg] | minimal effective dose (Mus musculus [4]) [mg/kg] | Activity (Rattus norvegicus [5]) [µg] | Activity (Rattus norvegicus [6]) [µg] | Activity (Mus musculus [7]) | Activity (Mus musculus [8]) | Activity (Rattus norvegicus [9]) [µg] | Activity (Mus musculus [10]) | minimal effective dose (Mus musculus [11]) [mg/kg] | logP [12] | Activity (Mus musculus [13]) | minimal effective dose (Mus musculus [14]) [mg/kg] | Activity (Mus musculus [15]) | MTC (Mus musculus [16]) [mg/kg] | Activity (Mus musculus [17])
1 | COc1cc2c(cc1OC)C(=O)C(CC1CCN(C(=S)Nc3ccc([N+](=O)[O-])cc3)CC1)C2 (stereo not drawn) | 300 | 35.13 | 300 | 100 | 15.71 | 59.33 | inactive | Non-toxic | 28.06 | Non-toxic | 30 | 4.58 |  |  |  |  | 
2 | CCCNC(=S)N1CCC(CC2Cc3cc(OC)c(OC)cc3C2=O)CC1 (stereo not drawn) | 300 |  | 300 |  |  |  |  | Non-toxic |  | Non-toxic | 100 |  | inactive | 300 |  |  | 
3 | COc1cc2c(cc1OC)C(=O)C(CC1CCN(C(=S)Nc3ccccc3Cl)CC1)C2 (stereo not drawn) | 300 |  | 300 | 300 |  |  |  | Toxic |  | Non-toxic | 100 |  |  | 300 |  |  | 
4 | COc1cc2c(cc1OC)C(=O)C(CC1CCN(C(=S)Nc3cccc(C)c3)CC1)C2 (stereo not drawn) |  |  |  |  |  |  |  |  |  |  | 300 |  |  |  | inactive |  | 
5 | COc1cc2c(cc1OC)C(=O)C(CC1CCN(C(=S)Nc3ccc(C)cc3)CC1)C2 (stereo not drawn) | 300 | 49.82 | 100 | 100 | 15.62 | 61.05 |  |  | 31.83 | Non-toxic | 30 | 4.58 |  | 300 |  |  | 
6 | COc1cc2c(cc1OC)C(=O)C(CC1CCN(C(=S)Nc3ccccc3)CC1)C2 (stereo not drawn) | 300 |  | 300 | 100 |  |  |  |  |  | Non-toxic | 100 |  |  | 300 |  |  | 
7 | CCCCNC(=S)N1CCC(CC2Cc3cc(OC)c(OC)cc3C2=O)CC1 (stereo not drawn) | 300 |  | 100 | 100 |  |  |  | Non-toxic |  |  | 100 |  |  | 300 |  | 300 | 
8 | COc1cc2c(cc1OC)C(=O)C(CC1CCN(C(=S)Nc3ccccc3C)CC1)C2 (stereo not drawn) | 100 |  |  | 300 |  |  | inactive | Non-toxic |  |  | 100 |  |  |  | inactive | 300 | 
9 | O=C1NC(=O)C(c2ccccc2)(c2ccccc2)N1 [PHENYTOIN] | 100 |  | 30 |  |  |  | inactive |  |  |  | 30 |  | inactive |  |  | 100 | 
10 | COc1cc2c(cc1OC)C(=O)C(CC1CCN(C(=S)Nc3ccc(Cl)cc3)CC1)C2 (stereo not drawn) | 100 | 40.75 | 100 | 100 | 13.47 | 44.81 |  | Non-toxic | 27.66 |  | 30 | 5.11 |  | 300 |  | 300 | 
11 | COc1cc2c(cc1OC)C(=O)C(CC1CCN(C(=S)Nc3ccccc3[N+](=O)[O-])CC1)C2 (stereo not drawn) |  |  | 300 |  |  |  | inactive |  |  |  | 100 |  | inactive |  |  | 300 | Non-toxic
12 | COc1cc2c(cc1OC)C(=O)C(CC1CCN(C(=S)Nc3cccc(Cl)c3)CC1)C2 (stereo not drawn) |  |  |  |  |  |  |  |  |  |  | 300 |  |  |  | inactive |  | 
13 | NC(=O)N1c2ccccc2C=Cc2ccccc21 [CARBAMAZEPINE] | 300 |  | 100 | 300 |  |  |  |  |  | Non-toxic | 30 |  |  | 100 |  |  | 
14 | COc1cc2c(cc1OC)C(=O)C(CC1CCN(C(=S)Nc3cccc([N+](=O)[O-])c3)CC1)C2 (stereo not drawn) |  |  |  |  |  |  |  |  |  |  | 300 |  |  |  | inactive |  | 
